Assay results published in patent publication US20200113910A1, “TRIAZINETRIONE DERIVATIVES AND THEIR USE AS MODULATORS OF NEUROTROPHIN RECEPTOR AND RECEPTOR TYROSINE KINASES” (ALZECURE PHARMA AB, priority 2016, published 2020).

Experiments:
TrkA = molecular target: T1, TrkA (Homo sapiens, UniProt P04629); experiment: Enzyme Fragment Complementation cell-based assay, TrkA; settings: U2OS-cells over-expressing TrkA; ligand NGF 10 ng/mL
T1 construct: expressed in transfected cells; host or cells: U2OS
T1 sequence (P04629 33-796): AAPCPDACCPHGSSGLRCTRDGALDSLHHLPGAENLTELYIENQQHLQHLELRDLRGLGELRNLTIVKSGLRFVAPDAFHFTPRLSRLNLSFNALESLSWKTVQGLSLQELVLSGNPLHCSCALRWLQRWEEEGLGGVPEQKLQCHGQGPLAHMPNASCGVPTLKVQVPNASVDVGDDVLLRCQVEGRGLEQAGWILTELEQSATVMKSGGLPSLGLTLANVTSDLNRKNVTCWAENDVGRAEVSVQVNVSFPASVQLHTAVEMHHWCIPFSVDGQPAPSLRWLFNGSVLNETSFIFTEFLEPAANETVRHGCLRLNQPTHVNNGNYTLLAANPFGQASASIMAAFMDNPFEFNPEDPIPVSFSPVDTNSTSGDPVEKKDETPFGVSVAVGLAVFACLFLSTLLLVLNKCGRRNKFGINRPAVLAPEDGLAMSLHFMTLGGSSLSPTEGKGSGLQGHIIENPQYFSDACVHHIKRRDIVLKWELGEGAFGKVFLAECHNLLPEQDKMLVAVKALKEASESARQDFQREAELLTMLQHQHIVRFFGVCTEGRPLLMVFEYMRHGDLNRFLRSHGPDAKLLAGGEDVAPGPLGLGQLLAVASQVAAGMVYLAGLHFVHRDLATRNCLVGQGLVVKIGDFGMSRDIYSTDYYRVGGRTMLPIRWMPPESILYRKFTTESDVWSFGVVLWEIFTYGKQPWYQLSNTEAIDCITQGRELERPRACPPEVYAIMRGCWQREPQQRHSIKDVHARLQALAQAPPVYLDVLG
Description: (§1) A high throughput cell-based screen has been used to identify positive modulators of TrkA, TrkB and TrkC. The screen involves the use of cell-based assay overexpressing TrkA, TrkB or TrkC. The purpose of the assay is to identify compounds that modulate neurotrophin signalling (Forsell et al 2012). The assay can be used in inhibitor mode using a high concentration of ligand, in modulator mode using an intermediate concentration and in agonist mode using a low concentration of ligand.
(§2) The assay uses Enzyme Fragment Complementation (EFC) technique, which is a proximity-based assay. Briefly, cells used in this assay over-express two fusion proteins, i.e. the receptor, which can be either one of TrkA, TrkB, TrkC, IGF1R or FGFR1, fused to a small peptide of 8-galactosidase and an adaptor protein, i.e. SHC1 (or any other Trk-adaptor protein) fused to the major part of 8-galactosidase. […] The proximity between the small activating peptide on the receptor and the major part of 8-galactosidase on the adaptor protein leads to an active 8-galactosidase enzyme. The activation of the receptor is quantified by measuring the amount of active 8-galactosidase by its conversion of a non-luminescent substrate into a luminescent product.
(§3) U2OS-cells, over-expressing TrkA or TrkB or TrkC, are plated in 96- or 384-well plates and incubated overnight. Alternatively, cryopreserved HEK293-cells expressing IGFR1 or cryopreserved U2OS-cells expressing FGFR1 were plated in 96- or 384-well plates. On the following day, test compound was pre-mixed with ligand (NGF, BDNF, NT-3, IGF-1 or basic fibroblast growth factor (bFGF(FGF-2))) and the ligand-compound mixture is then added to the cells to yield a final ligand concentration of typically 10 ng/mL (or as indicated in FIGS. 3 and 4). After 3 hours of incubation at room temperature, the incubation is stopped by the addition of a β-galactosidase substrate mixture containing detergents. The substrate mixture is incubated for 60 minutes at ambient temperature. The luminescence is thereafter read by the use of a plate reader.
(§4) The potency is expressed as EC50 (pM) and the efficacy as % stimulation over 10 ng/mL of ligand . The ligands used was: NGF (for TrkA assay), BDNF (for TrkB assay), NT-3 (for TrkC assay) bFGF (for FGFR1 assay), IGF-1 (for IGFR1 assay), respectively.

FGFR1 = molecular target: T2, FGFR1 (Homo sapiens, UniProt P11362); experiment: Enzyme Fragment Complementation cell-based assay, FGFR1; settings: U2OS-cells expressing FGFR1; ligand bFGF 10 ng/mL
T2 construct: expressed in transfected cells; host or cells: U2OS (cryopreserved)
T2 sequence (P11362 22-822): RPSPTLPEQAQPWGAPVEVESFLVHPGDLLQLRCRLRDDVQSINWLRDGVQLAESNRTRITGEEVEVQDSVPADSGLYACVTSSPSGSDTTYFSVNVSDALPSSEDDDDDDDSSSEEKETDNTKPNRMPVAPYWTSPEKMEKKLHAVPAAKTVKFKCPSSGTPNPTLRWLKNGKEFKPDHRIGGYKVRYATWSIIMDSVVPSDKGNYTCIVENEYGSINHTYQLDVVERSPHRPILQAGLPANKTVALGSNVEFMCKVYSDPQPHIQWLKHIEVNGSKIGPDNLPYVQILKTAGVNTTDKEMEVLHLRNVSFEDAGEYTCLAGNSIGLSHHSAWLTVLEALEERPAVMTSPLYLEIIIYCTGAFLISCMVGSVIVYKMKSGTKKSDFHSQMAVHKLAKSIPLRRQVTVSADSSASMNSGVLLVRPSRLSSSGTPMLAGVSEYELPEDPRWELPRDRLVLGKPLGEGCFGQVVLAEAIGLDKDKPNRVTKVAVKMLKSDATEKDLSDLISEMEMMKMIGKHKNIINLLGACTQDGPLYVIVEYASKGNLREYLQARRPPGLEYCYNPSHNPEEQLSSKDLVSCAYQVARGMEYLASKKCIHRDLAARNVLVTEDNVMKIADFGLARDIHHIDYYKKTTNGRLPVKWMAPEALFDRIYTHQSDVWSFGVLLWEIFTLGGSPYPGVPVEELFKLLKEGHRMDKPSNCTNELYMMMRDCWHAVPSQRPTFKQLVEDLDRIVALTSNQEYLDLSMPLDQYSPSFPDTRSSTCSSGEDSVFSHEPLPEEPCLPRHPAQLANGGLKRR
Description: as §2, §3, §4

TrkB = molecular target: T3, TrkB (Homo sapiens, UniProt Q16620); experiment: Enzyme Fragment Complementation cell-based assay, TrkB; settings: for TrkB efficacy, % stimulation over 10 ng/mL of ligand: U2OS-cells over-expressing TrkB, ligand BDNF 10 ng/mL
T3 construct: expressed in transfected cells; host or cells: U2OS
T3 sequence (Q16620 32-822): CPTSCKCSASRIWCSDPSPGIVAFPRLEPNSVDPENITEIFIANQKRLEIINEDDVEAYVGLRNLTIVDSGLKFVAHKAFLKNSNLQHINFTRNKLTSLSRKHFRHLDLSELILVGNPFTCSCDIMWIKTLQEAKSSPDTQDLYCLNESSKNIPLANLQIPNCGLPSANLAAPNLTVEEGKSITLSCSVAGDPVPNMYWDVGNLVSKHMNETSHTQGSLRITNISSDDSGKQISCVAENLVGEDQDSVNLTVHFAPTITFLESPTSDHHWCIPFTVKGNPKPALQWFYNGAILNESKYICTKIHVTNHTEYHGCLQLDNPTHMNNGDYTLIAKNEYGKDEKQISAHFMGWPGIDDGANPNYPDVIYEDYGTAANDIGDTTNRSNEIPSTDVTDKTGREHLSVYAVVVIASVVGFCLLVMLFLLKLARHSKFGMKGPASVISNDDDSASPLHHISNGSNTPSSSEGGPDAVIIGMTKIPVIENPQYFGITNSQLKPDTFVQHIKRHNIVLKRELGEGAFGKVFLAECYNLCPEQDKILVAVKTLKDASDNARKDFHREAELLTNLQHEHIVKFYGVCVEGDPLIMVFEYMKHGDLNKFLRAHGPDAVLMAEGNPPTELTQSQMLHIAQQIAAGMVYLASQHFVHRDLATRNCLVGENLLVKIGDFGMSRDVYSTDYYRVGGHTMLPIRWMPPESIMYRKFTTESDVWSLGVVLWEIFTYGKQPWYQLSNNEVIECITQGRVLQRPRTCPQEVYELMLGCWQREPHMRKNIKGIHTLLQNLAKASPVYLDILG
Description: as §1, §2, §3, §4

IGF1R = molecular target: T4, IGF1R (Homo sapiens, UniProt P08069); experiment: Enzyme Fragment Complementation cell-based assay, IGF1R; settings: HEK293-cells expressing IGFR1; ligand IGF-1 10 ng/mL
T4 construct: expressed in transfected cells; host or cells: HEK293 (cryopreserved)
T4 sequence (P08069 31-736 limits assumed): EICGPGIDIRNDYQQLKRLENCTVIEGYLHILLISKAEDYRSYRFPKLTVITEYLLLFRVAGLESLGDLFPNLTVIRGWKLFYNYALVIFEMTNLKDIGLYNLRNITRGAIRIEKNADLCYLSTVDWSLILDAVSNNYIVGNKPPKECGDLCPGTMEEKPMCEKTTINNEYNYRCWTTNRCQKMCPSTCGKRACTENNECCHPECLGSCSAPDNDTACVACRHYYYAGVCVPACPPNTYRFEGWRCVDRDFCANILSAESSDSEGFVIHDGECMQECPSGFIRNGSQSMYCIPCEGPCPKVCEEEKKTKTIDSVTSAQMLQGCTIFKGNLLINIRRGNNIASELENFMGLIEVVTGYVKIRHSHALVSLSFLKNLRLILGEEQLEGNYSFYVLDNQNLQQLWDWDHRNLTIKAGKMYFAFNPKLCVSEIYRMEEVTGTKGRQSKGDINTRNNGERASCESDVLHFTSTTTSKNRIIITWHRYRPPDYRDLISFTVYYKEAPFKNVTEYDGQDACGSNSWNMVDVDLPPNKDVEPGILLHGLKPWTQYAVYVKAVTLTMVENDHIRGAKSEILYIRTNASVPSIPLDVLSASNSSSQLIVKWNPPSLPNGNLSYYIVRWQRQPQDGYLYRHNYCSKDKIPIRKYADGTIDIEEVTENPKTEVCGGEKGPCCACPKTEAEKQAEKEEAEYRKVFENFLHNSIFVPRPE
T4 sequence (P08069 741-1367 limits assumed): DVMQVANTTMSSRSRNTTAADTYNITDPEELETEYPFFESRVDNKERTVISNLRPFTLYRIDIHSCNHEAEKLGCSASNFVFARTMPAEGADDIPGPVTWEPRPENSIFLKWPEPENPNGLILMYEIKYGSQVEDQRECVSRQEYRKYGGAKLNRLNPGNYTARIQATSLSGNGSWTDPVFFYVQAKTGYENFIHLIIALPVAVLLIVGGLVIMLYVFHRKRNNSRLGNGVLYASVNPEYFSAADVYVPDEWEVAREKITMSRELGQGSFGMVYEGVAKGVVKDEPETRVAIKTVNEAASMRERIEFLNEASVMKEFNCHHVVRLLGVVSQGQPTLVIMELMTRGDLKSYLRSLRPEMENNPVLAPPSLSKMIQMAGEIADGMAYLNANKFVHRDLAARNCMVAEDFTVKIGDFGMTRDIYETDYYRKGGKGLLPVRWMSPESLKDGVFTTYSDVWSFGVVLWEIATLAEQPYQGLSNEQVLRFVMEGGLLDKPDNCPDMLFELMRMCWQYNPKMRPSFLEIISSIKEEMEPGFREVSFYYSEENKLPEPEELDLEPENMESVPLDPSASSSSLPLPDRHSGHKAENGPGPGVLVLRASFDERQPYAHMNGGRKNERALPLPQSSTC
Description: as §2, §3, §4

[1] = tested on: cellular prion protein (PrP^C); settings: Suzuki et al., FEBS Open Bio 2016; cited from earlier work
C57/BI6 mice [2] = experiment: Passive avoidance task, scopolamine-treated mice (Example 1); format: in vivo; settings: 20 mg/kg i.p. once per day for 4 days; scopolamine 0.3 mg/kg s.c.; FIG. 1
Protocol: (§5) Passive avoidance (PA) is an aversive learning task based on classical (Pavlovian) fear conditioning that allows for analysis of both facilitation and impairment of memory function by adjusting the unconditioned stimulus, i.e. the electrical foot shock. Commonly a cognitive-impairing agent is administered to the animals to mimic the neurochemical disturbances present in various cognitive disorders e.g. cholinergic (scopolamine) and glutamatergic (MK-801) deficits.
(§6) Prior to testing, the animals are brought to the experimental room where they were allowed to habituate for 60 min. The test is conducted using a modified shuttle box with two communicating compartments of equal size with a small sliding door built into the separating wall and a stainless steel bar floor. One of the compartments is not illuminated and thus black whereas the other compartment (the light one) is illuminated by an electric bulb, installed on the top of a plexiglass cover. The PA training is conducted in a single session. […] Latency to cross over into the dark compartment (training latency) is recorded. […] The latency to cross over into the dark compartment with all four feet is measured (retention latency) as well as time in bright compartment and a number of other relevant parameters (e.g. number of visits in the dark compartment). […]

[3] = tested on: ephrin type-B receptor 2 (EphB2); settings: Suzuki et al., FEBS Open Bio 2016; cited from earlier work
TrkC = molecular target: T5, TrkC (Homo sapiens, UniProt Q16288); experiment: Enzyme Fragment Complementation cell-based assay, TrkC; settings: U2OS-cells over-expressing TrkC; ligand NT-3 10 ng/mL
T5 construct: expressed in transfected cells; host or cells: U2OS
T5 sequence (Q16288 32-839): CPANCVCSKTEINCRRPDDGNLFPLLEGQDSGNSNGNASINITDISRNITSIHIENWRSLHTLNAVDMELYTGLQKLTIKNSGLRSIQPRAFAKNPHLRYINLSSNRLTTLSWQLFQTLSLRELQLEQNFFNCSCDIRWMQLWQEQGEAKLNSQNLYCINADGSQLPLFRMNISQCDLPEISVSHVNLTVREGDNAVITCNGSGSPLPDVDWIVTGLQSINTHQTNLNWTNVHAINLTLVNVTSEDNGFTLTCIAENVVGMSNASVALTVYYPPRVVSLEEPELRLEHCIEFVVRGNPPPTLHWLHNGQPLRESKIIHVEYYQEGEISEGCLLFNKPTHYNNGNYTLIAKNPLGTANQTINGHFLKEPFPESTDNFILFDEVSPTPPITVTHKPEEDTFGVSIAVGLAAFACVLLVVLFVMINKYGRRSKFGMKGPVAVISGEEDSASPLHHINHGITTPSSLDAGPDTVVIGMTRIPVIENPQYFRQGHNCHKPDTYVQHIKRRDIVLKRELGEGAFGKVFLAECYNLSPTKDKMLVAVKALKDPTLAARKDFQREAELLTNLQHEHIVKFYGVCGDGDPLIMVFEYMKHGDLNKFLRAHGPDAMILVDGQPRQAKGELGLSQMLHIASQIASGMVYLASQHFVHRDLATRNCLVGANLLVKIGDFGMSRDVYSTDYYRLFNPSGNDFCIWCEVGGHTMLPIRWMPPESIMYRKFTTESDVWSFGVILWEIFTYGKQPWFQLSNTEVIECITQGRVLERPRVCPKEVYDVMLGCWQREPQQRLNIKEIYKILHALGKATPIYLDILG
Description: as §1, §2, §3, §4

C57/BI6 mice [4] = experiment: Passive avoidance task, MK-801-treated mice (Example 2); format: in vivo; settings: different doses i.p. once per day for 4 days; MK-801 0.3 mg/kg s.c.; FIG. 2
Protocol: as §5, §6

[5] = FIG. 3, cells stimulated with or without BDNF

| Structure (SMILES) | TrkA efficacy, % stimulation over 10 ng/mL of ligand (TrkA) | FGFR1 efficacy, % stimulation over 10 ng/mL of ligand (FGFR1) | decrease of activity at the two highest concentrations tested, TrkB expressing cells (TrkB; [5]) | dose-response curve with BDNF as ligand in TrkB expressing cells (TrkB; [5]) | TrkB efficacy, % stimulation over 10 ng/mL of ligand (TrkB) | IGF1R efficacy, % stimulation over 10 ng/mL of ligand (IGF1R) | inhibitory activity at the cellular prion protein (PrP^C) [1] | retention latency in passive avoidance task (cognitive function) (C57/BI6 mice [2]) | inhibition of binding of β-amyloid oligomers to EphB2 [3] | TrkC efficacy, % stimulation over 10 ng/mL of ligand (TrkC) | total time spent in bright compartment in passive avoidance task (cognitive function) (C57/BI6 mice [4]) |
| --- | --- | --- | --- | --- | --- | --- | --- | --- | --- | --- | --- |
| Cc1cc(-n2c(=O)[nH]c(=O)n(C)c2=O)ccc1Oc1ccc(SC(F)(F)F)cc1 [Compound 1, 1-methyl-3-(3-methyl-4-{4-[(trifluoromethyl)sulfanyl]phenoxy}phenyl)-1,3,5-triazinane-2,4,6-trione] | 109% | 73% | significantly decreases | no clear dose-response curve | 124% | 83% | lack of similar inhibitory activity | increased retention latency | 30% | 87% |  |
| Cc1cc(-n2c(=O)[nH]c(=O)n(C)c2=O)ccc1Oc1ccc(S(=O)(=O)C(F)(F)F)cc1 [Compound 2, 1-methyl-3-[3-methyl-4-(4-trifluoromethanesulfonylphenoxy)phenyl]-1,3,5-triazinane-2,4,6-trione] | 138% | 43% | not observed |  | 232% | 25% |  |  |  | 70% | increased time spent in the bright area |
| Cc1cc(-n2c(=O)[nH]c(=O)n(C)c2=O)ccc1Oc1ccc([S+]([O-])C(F)(F)F)cc1 (centres unmarked) [Compound 3, 1-methyl-3-[3-methyl-4-(4-trifluoromethanesulfinylphenoxy)phenyl]-1,3,5-triazinane-2,4,6-trione] | 143% | 102% | not observed |  | 196% | 109% |  |  |  | 74% |  |
| Cc1cc(-n2c(=O)[nH]c(=O)n(-c3ccccc3)c2=O)ccc1Oc1ccc([S+]([O-])C(F)(F)F)cc1 (centres unmarked) [Compound 4, 1-[3-methyl-4-(4-trifluoromethanesulfinylphenoxy)phenyl]-3-phenyl-1,3,5-triazinane-2,4,6-trione] | 128% |  |  |  | 217% |  |  |  |  | 69% |  |
| Cc1cc(-n2c(=O)[nH]c(=O)n(-c3ccccc3)c2=O)ccc1Oc1ccc(SC(F)(F)F)cc1 [Compound 5, 1-(3-methyl-4-{4-[(trifluoromethyl)sulfanyl]phenoxy}phenyl)-3-phenyl-1,3,5-triazinane-2,4,6-trione] | 112% |  |  |  | 210% |  |  |  |  | 84% |  |
| Cc1cc(-n2c(=O)[nH]c(=O)n(-c3ccccc3)c2=O)ccc1Oc1ccc(S(=O)(=O)C(F)(F)F)cc1 [Compound 6, 1-[-3-methyl-4-(4-trifluoromethanesulfonylphenoxy)phenyl]-3-phenyl-1,3,5-triazinane-2,4,6-trione] | 147% |  |  |  | 300% |  |  |  |  | 124% |  |
